Data on eleven molecules can be found in patent US4225529A, “Compositions containing platinum” (Johnson, Matthey & Co., Limited, priority 1977, dated 1980).

For data set [1], the system named is S180 solid tumour. The data set can be described thus: antitumour activity against S180 solid tumour in mice (T/C). It is filed as in vivo. The conditions noted are these: S180, @ 10 mg/Kg, carrier water, intraperitoneal. How it is done: (§1) Complexes according to the invention were tested for antitumour activity against L-1210 leukaemia, ADJ/PC6A tumour or S180 solid tumour in mice. In the results which follow, dosages are quoted in mg/Kg body weight and the evaluation of effectiveness (% T/C) against L1210 is calculated as the median survival time of treated mice divided by the median survival time of untreated (control) mice expressed as a percentage. Thus a % T/C of 100 indicates no activity and a % T/C of greater than or equal to 125 is considered to be indicative of significant antitumour activity.
(§2) Against a solid tumour, the % T/C is a measure of tumour regression and is the percentage of tumour weight in treated mice to that in control mice. Against ADJ/PC6A and S180, several dose levels were given and ranged from lethal to non-tumour inhibitory, allowing the calculation of LD50 and ID90 (minimum dose to cause 90% tumour inhibition) in one experiment. The ratio LD50 /ID90 is the therapeutic index and is a measure of the selectivity of the compound as an anti-tumour agent. […]

Data set [2] deals with L-1210 leukaemia. The data set can be described thus: antitumour activity against L1210 leukaemia in mice (% T/C). The class given is in vivo. Conditions: intraperitoneal, median survival treated/control. How it is done:
as §1, §2

Data set [3] has as its system ADJ/PC6A tumour. The data set can be described thus: antitumour activity against ADJ/PC6A tumour in mice (ID90, LD50, therapeutic index). The class given is in vivo. Conditions: intraperitoneal single dose in arachis oil. Here is the method:
Complexes according to the invention were tested for antitumour activity against L-1210 leukaemia, ADJ/PC6A tumour or S180 solid tumour in mice. […] Thus a % T/C of 100 indicates no activity and a % T/C of greater than or equal to 125 is considered to be indicative of significant antitumour activity.
Against a solid tumour, the % T/C is a measure of tumour regression and is the percentage of tumour weight in treated mice to that in control mice. Against ADJ/PC6A and S180, several dose levels were given and ranged from lethal to non-tumour inhibitory, allowing the calculation of LD50 and ID90 (minimum dose to cause 90% tumour inhibition) in one experiment. The ratio LD50 /ID90 is the therapeutic index and is a measure of the selectivity of the compound as an anti-tumour agent. All compounds were administered intraperitoneally as a single dose suspended in arachis oil.

Data set [4] is described as follows: stability in solution. It is filed as physicochemical. Here is the method:
cis-[PtI2 (n-C4 H9 NH2)2 ] (120 g, 0.20 mol) was slurried with a warm solution of silver nitrate (66 g, 0.38 mol) in water (200 ml). The mixture was stirred for 3 hours during which time the yellow suspension turned pale grey. The mixture was then treated with charcoal, stirred and filtered through a porosity 4 sinter. The residue was washed once with 30 ml of water and the washings were combined with the filtrate (total volume 300 ml).
Cis-[PtI2 (n-C3 H7 NH2)2 ] (127 g, 0.22 mol) was slurried with a warm (50° C.) solution of silver nitrate (73 g, 0.43 mol) in 130 mls of water. The mixture was stirred for 4 hours during which time the yellow suspension turned dark grey. The mixture was then treated with charcoal, stirred and filtered through a porosity 4 sinter. The residue was triturated with water (20 mls) and the filtrates combined to give a clear orange solution (total volume 150 mls).
The crude oxalto complex was recrystallised as follows. The product was added to a stirred, vigorously boiling aqueous solution of 0.1 M potassium oxalate (800 ml). The solution was boiled for 30 minutes to effect dissolution during which time the solution darkened owing to some platinum formation. The solution was then treated with charcoal, stirred, cooled to 80° C. and filtered through a porosity 4 sinter. White crystals formed on cooling the filtrate to 25° C. and after storage for 3 days at 5° C., the product was filtered off, washed with water and air dried.
The solution was concentrated to a volume of 30-40 mls, treated with charcoal and filtered through a porosity 4 sinter. A white solid formed when the solution was cool. This was filtered off on a porosity 3 sinter. More white solid was obtained when an equal volume of water was added to the ethanolic filtrate. The purified products were combined, washed with water, ethanol and dried in vacuo.

[5] abbreviates: aqueous solution, on standing (tendency to darken).

Turning to `CCN.CCN.O=C1[O][Pt][O]C1=O` [Bis-(ethylamine)oxalatoplatinum(II)], the “T/C (tumour weight in treated mice to that in control mice)” value in data set [1] is recorded as 21%. `CCCN.CCCN.O=C1[O][Pt][O]C1=O` [Bis-(n-propylamino)oxalatoplatinum(II), Oxalatobis(n-propylamine)platinum(II)]: the “% T/C” value in data set [2] (L1210, daily dose for 9 days @ 15 mg/Kg) was 143%; in data set [2] (L1210, daily dose for 9 days @ 30 mg/Kg), 143%; in data set [2] (L1210, single dose @ 59 mg/Kg), 129%. Turning to `CCCCN.CCCCN.O=C(CCl)[O][Pt][O]C(=O)CCl` [Cis-bis (n-butylamine) bis(chloroacetato) platinum (II)], the “% T/C” value was 136% in data set [2] (L1210, daily dose for 9 days @ 32 mg/kg) and 107% in data set [2] (L1210, single dose @ 256 mg/Kg). As to `CCCN.CCCN.O=C(CCl)[O][Pt][O]C(=O)CCl` [Cis-bis(chloroacetato) bis(n-propylamine)platinum II], the “% T/C” value in data set [2] (L1210, daily dose for 9 days @ 6 mg/Kg) turned out to be 225%; in data set [2] (L1210, single dose @ 12 mg/Kg), 167%; in data set [2] (L1210, single dose @ 24 mg/Kg), 167%. On to `CCCN.CCCN.[Cl][Pt][Cl]` [Cis-bis(n-propylamine)dichloroplatinum(II)], for which the “% T/C” value in data set [2] (L1210, daily dose for 9 days @ 4 mg/kg) was determined as 157%; in data set [2] (L1210, single dose @ 8 mg/Kg), 157%. By LD50 is commonly meant the dose at which mortality reaches 50%. With `CCCCN.CCCCN.[Cl][Pt][Cl]` [Cis-bis-(n-butylamine)dichloroplatinum(II)], in data set [3], the “ID90 (minimum dose to cause 90% tumour inhibition)” value is less than 10 mg/kg; the median lethal dose (LD50) turned out to be 110 mg/kg; the “TI (therapeutic index, ratio LD50/ID90)” value is listed as more than 11.

Regarding `CCCCN.CCCCN.O=C1[O][Pt][O]C1=O` [Example 8, Bis (n-butylamine)oxalatoplatinum(II)], the stability result in data set [4] (boiling 0.1 M potassium oxalate) is recorded as “instability”.

As for `CCCCCN.CCCCCN.O=C1[O][Pt][O]C1=O` [Example 12, Oxalatobis(n-pentylamine)platinum(II)], in data set [4] (recrystallisation from hot ethanol), the stability entry is recorded as “without apparent decomposition”.

For the molecule `CCCCCN.CCCCCN.[Cl][Pt][Cl]` [cis-dichlorobis(1-aminopentane)platinum(II)], in data set [3], the “ID90 (minimum dose to cause 90% tumour inhibition)” value worked out at 37 mg/kg; the LD50 turned out to be 92 mg/kg; the “TI (therapeutic index, ratio LD50/ID90)” value was 2.5. Regarding n-butylamine diaquo complex [Example 1], the stability result in data set [4] (setting [5]) was “slow decomposition to platinum”. For the molecule “n-propylamine diaquo complex [Example 2]”, the stability entry in data set [4] (setting [5]) is “slow decomposition to platinum”.
